Test results published in patent US20090131356A1, “miR-15, miR-26, miR-31, miR-145, miR-147, miR-188, miR-215, miR-216, miR-331, mmu-miR-292-3P REGULATED GENES AND PATHWAYS AS TARGETS FOR THERAPEUTIC INTERVENTION” (ASURAGEN, INC., priority 2006, published 2009).

Tests used:
HCC2935 cells = test: Alamar Blue proliferation assay, HCC2935; type: cell-based, human; settings: 30 nM, normalized to negative control miRNA (100% proliferation)
Text: The inventors assessed the therapeutic effect of hsa-miR-147 for lung cancer by using 12 individual lung cancer cell lines. To measure cellular proliferation of lung cancer cells, the following parental non-small cell lung cancer (NSCLC) cells were used: cells derived from lung adenocarcinoma (A549, H1299, H522, H838, Calu-3, HCC827, HCC2935), cells derived from lung squamous cell carcinoma (H520, H226), cells derived from lung adenosquamous cell carcinoma (H596), cells derived from lung bronchioalveolar carcinoma (H1650), and cells derived from lung large cell carcinoma (H460). In addition to these parental cell lines, highly metastatic NSCLC cells were used that stably express the firefly luciferase gene: A549-luc, H460-luc, HCC827-luc, H1650-luc, H441-luc. Unlike the parental cell lines, these metastatic cells readily migrate to distant sites of the test animal and form metastases upon subcutaneous, orthotopic, or intravenous injection. Synthetic hsa-miR-147 or negative control miRNA was delivered via lipid-based transfection into A549, H1299, H522, H838, Calu-3, HCC827, HCC2935, H520, H596, H1650, H460, A549-luc, H460-luc, HCC827-luc, H1650-luc, H441-luc cells and via electroporation into H226 cells. […]

[1] = system: PC3 human prostate cancer cells; test: Long-term growth curve with repeated electroporation, PC3; type: cell-based; settings: 1.6 μM electroporated, repeated on days 7 and 14; by day 21
Experimental: To evaluate the therapeutic activity of hsa-miR-147 over an extended period of time, the inventors conducted growth curve experiments in the presence of miRNA for up to 21 days. Since in vitro transfections of naked interfering RNAs, such as synthetic miRNA, are transient by nature and compromised by the dilution of the oligo during ongoing cell divisions, miRNA was administered at multiple time points (Bartlett et al., 2006; Bartlett et al., 2007). To accommodate miRNA delivery into a large quantity of cells, the inventors employed the electroporation method to delivery hsa-miR-147 or negative control miRNA into PC3 and Du145 human prostate cancer cells. Briefly, 1×10^6 PC3 cells and 0.5×10^6 Du145 cells were electroporated with 1.6 μM hsa-miR-147 or negative control using the BioRad Gene Pulser Xcell™ instrument (BioRad Laboratories Inc., Hercules, Calif., USA), seeded and propagated in regular growth medium. Experiments with PC3 and Du145 cells were carried out in triplicates. When the control cells reached confluence (days 7 and 14), cells were harvested, counted and electroporated again with the respective miRNAs. […] The population doubling was calculated from these electroporation events using the formula PD=ln(Nf/N0)/ln2 and adjusting for the fact that approximately 72% of newly seeded cells adhere to the plate. […]

A549 and H1299 cells = test: Dose-dependent Alamar Blue proliferation assay (0 pM to 3 nM); type: cell-based, human; settings: for % proliferation: normalized to mock-transfected cells (0 pM miRNA)
Experimental: The inventors determined sensitivity and specificity of hsa-miR-147 by administering hsa-miR-147 or negative control miRNA at increasing concentrations, ranging from 0 pM to 3 nM. Delivery of miRNA and cellular proliferation of A549 and H1299 cells was assessed as described above. Alamar Blue values were normalized to values obtained from mock-transfected cells (0 pM=100% proliferation). As shown in FIG. 3 and Table 8, increasing amounts of negative control miRNA had no effect on cellular proliferation of A549 or H1299 cells. In contrast, the growth-inhibitory phenotype of hsa-miR-147 is dose-dependent and correlates with increasing amounts of hsa-miR-147. Hsa-miR-147 induces a therapeutic response at concentrations as low as 300 pM.

“hsa-miR-147: Synthetic pre-miR-147 (Ambion AM17100; Dharmacon in vivo); mature sequence GUGUGUGGAAAUGCUUCUGC, MIMAT0000251, SEQ ID NO:114 (synthetic pre-miR (Ambion/Dharmacon), chemistry not given here; listed as Homo sapiens)” was tested, and the “% proliferation” value (HCC2935 cells) was 60.35%, the “fate of PC3 cells in long-term growth curve” value [1] was “eliminated” and the “% proliferation” value (A549 and H1299 cells; A549 Cells, 3 pM) was 104.77%. For the same substance, the “% proliferation” value (A549 and H1299 cells; A549 Cells, 30 pM) was 99.22%, the “% proliferation” value (A549 and H1299 cells; A549 Cells, 300 pM) was 88.24% and the “% proliferation” value (A549 and H1299 cells; A549 Cells, 3,000 pM) was 75.78%. The “% proliferation” value (A549 and H1299 cells; H1299 Cells, 3 pM) was 93.08%, the “% proliferation” value (A549 and H1299 cells; H1299 Cells, 30 pM) was 88.20% and the “% proliferation” value (A549 and H1299 cells; H1299 Cells, 300 pM) was 81.82%. For the same substance, the “% proliferation” value (A549 and H1299 cells; H1299 Cells, 3,000 pM) was 69.70% and the “lowest concentration inducing a therapeutic response” value (A549 and H1299 cells; concentrations 0 pM to 3 nM, normalized to mock-transfected cells) was 300 pM.
